IC50 and Activity data for 13 molecules are collected here from ChEMBL document CHEMBL6115007, “Synthesis and in vitro and in vivo evaluation of novel bivalent quinolines as antitumor agents via targeting autophagy in cervical cancer” (Eur J Med Chem, 2025).

The structures appear in SMILES notation. The source made the active and inactive calls. No cut-off for these calls is given here.

Type in all cases: functional, cell-based
Assay [1] has as its system HCT-116. Put plainly: Antiproliferative activity against human HCT-116 cells assessed as reduction in cell optical density incubated for 48 hrs by MTT assay. As to conditions: HCT-116, 48 h. On the technique in general: Formazan colour is commonly taken as a measure of viable cells.
The test system of assay [2] is MCF7. Put plainly: Antiproliferative activity against human MCF7 cells assessed as reduction in cell optical density incubated for 48 hrs by MTT assay. Particulars: MCF7, 48 h.
For assay [3], the system named is A549. Put plainly: Antiproliferative activity against human A549 cells assessed as reduction in cell optical density incubated for 48 hrs by MTT assay. Particulars: A549, 48 h.
The subject of assay [4] is HepG2. Put plainly: Antiproliferative activity against human HepG2 cells assessed as reduction in cell optical density incubated for 48 hrs by MTT assay. As to conditions: HepG2, 48 h.
In assay [5] the test system is HeLa. Put plainly: Antiproliferative activity against human HeLa cells assessed as reduction in cell optical density incubated for 48 hrs by MTT assay.
For assay [6], the system named is BGC-823. Put plainly: Antiproliferative activity against human BGC-823 cells assessed as reduction in cell optical density incubated for 48 hrs by MTT assay. As to conditions: BGC-823, 48 h.
Assay [7] relates to HeLa. Put plainly: Induction of autophagy in human HeLa cells transfected with mRFP-GFP-LC3 plasmid assessed as stable RFP fluorescence at 30 uM incubated for 24 hrs by DAPI staining based fluorescence confocal microscopic analysis.
Assay [8] has as its system Ca-Ski. Put plainly: Induction of ferroptosis in human Ca Ski cells assessed as increase in lipid ROS level by measuring rightward shift in fluorescence intensity at 6 uM measured after 12 hrs by C11-BODIPY-581/591 staining based flow cytometric analysis. On the technique in general: Flow cytometry measures light scatter and fluorescence of single cells or particles in a stream.

The subject of assay [9] is HeLa. Put plainly: Induction of ferroptosis in human HeLa cells assessed as increase in lipid ROS level by measuring rightward shift in fluorescence intensity at 8 uM measured after 12 hrs by C11-BODIPY-581/591 staining based flow cytometric analysis.

The term IC50 denotes the concentration at which inhibition is half-maximal. On to `FC(F)(F)Oc1cccc(Nc2ccnc3cc(OCCCCCCOc4ccc5c(Nc6cccc(OC(F)(F)F)c6)ccnc5c4)ccc23)c1`, for which the IC50 was 10.3 µM in assay [1]; over 200 µM in assay [2]; 0.31 µM in assay [3]; 44.8 µM in [4]; 28.3 µM in assay [5]; 89.4 µM in assay [6].

Consider `Fc1cccc(Nc2ccnc3cc(OCCCCCOc4ccc5c(Nc6cccc(F)c6)ccnc5c4)ccc23)c1`, for which the IC50 in assay [1] came to 3.28 µM; in assay [2], 4.98 µM; in assay [3] it was 2.55 µM; in [4], 45.4 µM; in assay [5], 4.34 µM; in assay [6], 2.44 µM.

On to `CN1CCN(c2ccnc3cc(OCCCCCOc4ccc5c(N6CCN(C)CC6)ccnc5c4)ccc23)CC1`, for which the IC50 worked out at 3.85 µM in [1]; 6.03 µM in assay [2]; 26 µM in [3]; 35.1 µM in assay [4]; 30.9 µM in [5]; 3.55 µM in [6].

For the molecule `CN1CCN(c2ccnc3cc(OCCCCOc4ccc5c(N6CCN(C)CC6)ccnc5c4)ccc23)CC1`, the IC50 in [1] is over 200 µM; in assay [2] it was over 200 µM; in [3] it was 139 µM; in assay [4], over 200 µM; in [5], 146 µM; in assay [6], 136 µM.

For the molecule `CO[C@H]1C[C@@H]2CC[C@@H](C)[C@@](O)(O2)C(=O)C(=O)N2CCCC[C@H]2C(=O)O[C@H]([C@H](C)C[C@@H]2CC[C@@H](O)[C@H](OC)C2)CC(=O)[C@H](C)/C=C(\C)[C@@H](O)[C@@H](OC)C(=O)[C@H](C)C[C@H](C)/C=C/C=C/C=C/1C`, in assay [7], the result was Active.

`Fc1cccc(Nc2ccnc3cc(OCCCCCCOc4ccc5c(Nc6cccc(F)c6)ccnc5c4)ccc23)c1`: the half-maximal inhibitory concentration (IC50) in assay [1] is 6.64 µM; in assay [2], over 200 µM; in [3], 0.75 µM; in [4] it was 0.36 µM; in assay [5], 0.94 µM; in [6], 9.82 µM.

Take `Fc1cccc(Nc2ccnc3cc(OCCCCOc4ccc5c(Nc6cccc(F)c6)ccnc5c4)ccc23)c1`: the concentration for half-maximal inhibition (IC50) is 17.1 µM in [1]; 6.79 µM in [2]; 13.3 µM in assay [3]; 10.5 µM in assay [4]; 37.3 µM in assay [5]; 18.7 µM in assay [6].

Take `COc1cccc(Nc2ccnc3cc(OCCCCOc4ccc5c(Nc6cccc(OC)c6)ccnc5c4)ccc23)c1`: the IC50 in [1] was over 200 µM; in assay [2] it was 47.2 µM; in assay [3], 142 µM; in assay [4] it was over 200 µM; in assay [5], 48.3 µM; in assay [6] it was 63.8 µM.

On to `COc1cccc(Nc2ccnc3cc(OCCCCCCOc4ccc5c(Nc6cccc(OC)c6)ccnc5c4)ccc23)c1`, for which the IC50 in assay [1] turned out to be 6.99 µM; in assay [2], 5.55 µM; in [3] it was 6.15 µM; in [4], 31.9 µM; in assay [5], 4.07 µM; in [6], 3.58 µM.

As to `FC(F)(F)Oc1cccc(Nc2ccnc3cc(OCCCCCOc4ccc5c(Nc6cccc(OC(F)(F)F)c6)ccnc5c4)ccc23)c1`, the IC50 in assay [1] was determined as 17.2 µM; in assay [2], 38 µM; in assay [3], 0.78 µM; in assay [4], 24.8 µM; in assay [5], 14.3 µM; in [6], 3.35 µM.

In the case of `COC(=O)c1ccc([C@H]2c3[nH]c4ccccc4c3C[C@H](C(=O)OC)N2C(=O)CCl)cc1`, the outcome in assay [8] and in [9] was Active.

Take `CN1CCN(c2ccnc3cc(OCCCCCCOc4ccc5c(N6CCN(C)CC6)ccnc5c4)ccc23)CC1`: the 50% inhibitory concentration (IC50) in assay [1] came to 42.3 µM; in assay [2], 44.3 µM; in [3] it was 0.33 µM; in assay [4], 43.3 µM; in assay [5] it was 26.1 µM; in [6], 50.2 µM.

Regarding `FC(F)(F)Oc1cccc(Nc2ccnc3cc(OCCCCOc4ccc5c(Nc6cccc(OC(F)(F)F)c6)ccnc5c4)ccc23)c1`, the IC50 was 13.5 µM in [1]; over 200 µM in [2]; 2.75 µM in assay [3]; 2.75 µM in assay [4]; 14.1 µM in [5]; 66 µM in assay [6].
